The text below walks through data of patent US20030055107A1, “Forms of pharmaceutically active agents and method for manufacture thereof” (priority 2001, published 2003).

The conditions of data set [1]: cited from earlier work.
Data set [2] is described as follows: Dynamic Vapor Sorption Moisture Balance, relative weight gain due to moisture pickup. The note with it: for critical humidity: cycled between 0% RH to 95% RH to 0% RH over 48 hours at 25° C. The format is physicochemical. The method, then: Samples were cycled between 0% RH to 95% RH to 0% RH over 48 hours at 25° C. […] At 50% humidity, the relative weight gain due to moisture pickup was about 25% while at 70% humidity the relative weight gain was about 35%. […] At 50% humidity the relative weight gain due to moisture pickup was about 1.4% and at 70% humidity the weight gain was bout 2%.

Data set [3] in a line: Dissolution of dried new form in water (observation). Format: physicochemical. The note with it: dried form with potassium cation placed in water. From the text: The new ibuprofen form of the present invention dissociates into ibuprofen in its free acid form.

SMILES strings stand for the structures. Some results are limits rather than exact numbers.

`CC(C)Cc1ccc(C(C)C(=O)O)cc1` (racemic) [Ibuprofen, ibuprofen]: in data set [1] (water), the solubility in water is < 100 µg/mL.
Take `CC(C)Cc1ccc(C(C)C(=O)O)cc1.CC(C)Cc1ccc(C(C)C(=O)[O-])cc1.[K+]` (stereo not shown) [new ibuprofen form]: in data set [2] (0-95% RH cycle, 25° C.), the “hygroscopicity compared to the potassium salt of ibuprofen” value is recorded as “significantly less hygroscopic” and the “physical change of sample during humidity cycling” value is “No change in crystal appearance was observed”. For the same compound, in data set [2], the critical humidity entry is listed as “about 30%”. In addition, in data set [3], the “dissolution in water (in words)” value is “readily dissolves in water”. The “dissolution in water (in words)” value in data set [3] (listed as ibuprofen form of the present invention wherein the cation is potassium) is recorded as “immediate dissolution”.
`CO[C@@H]1[C@@H](OC(N)=O)[C@@H](O)[C@H](Oc2ccc3c(O)c(NC(=O)c4ccc(O)c(CC=C(C)C)c4)c(=O)oc3c2C)OC1(C)C` [novobiocin]: the “solubility of amorphous substance versus crystalline agent” value in data set [1] (amorphous vs crystalline, Mullins and Macek 1960) was “ten times higher”.
`CC(C)Cc1ccc(C(C)C(=O)O)cc1.[K]` (stereo not shown) [potassium ibuprofen]: in data set [2] (0-95% RH cycle, 25° C.), the “physical change of sample during humidity cycling” value is “the sample dissolved and formed a gel”. For the same compound, the critical humidity entry in data set [2] is listed as “about 30%”. In addition, the “solubility (in words)” value in data set [1] (background statement) is reported as “highly soluble”.
